The values that follow come from PubChem BioAssay (NCI).

Each structure is given as a SMILES string.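 Test compounds were applied to cells in 96-well plates for 48 hours at 5 doses. Here, GI50 denotes the concentration required for 50% inhibition of growth. The concentration for full growth arrest is given as TGI.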

Some test systems named below: MDA-MB-435; RPMI-8226 leukemia; U251 CNS; HCC-2998 colon; MALME-3M melanoma; CCRF-CEM leukemia; KM12 colon; NCI-H226 lung; HL-60(TB) leukemia; HCT-116 colon.
Assay in all cases: NCI tumour cell line growth inhibition, 48 h

With `COc1cc2c(cc1OC)-c1[nH]c3ccc([N+](=O)[O-])cc3c1CC(=O)N2`, the TGI in the test with MDA-MB-435 was over 100 µM; in the test on RPMI-8226 leukemia, 47.8 µM; in the test on U251 CNS it was over 100 µM; in the test on HCC-2998 colon it was 5.6 µM; with MALME-3M melanoma, 9.34 µM; with CCRF-CEM leukemia, over 37.6 µM. Also, the figures for the TGI in the test on KM12 colon, with NCI-H226 lung and in the test with HL-60(TB) leukemia were over 56.1 µM, 1.66 µM and 7.31 µM, respectively.

Turning to `COc1c(C)c(C/C=C(\C)CCCCO)c(OC)c2ccccc12`, the TGI with HCT-116 colon is 88.2 µM; in the test with MDA-MB-435 it was 99.2 µM; in the test with RPMI-8226 leukemia, over 100 µM; in the test on U251 CNS, over 100 µM; in the test with HCC-2998 colon, 62.5 µM; in the test with CCRF-CEM leukemia it was 63 µM. For the same molecule, the TGI in the test with KM12 colon was determined as 54.9 µM.

For the molecule `CCOC(=O)[C@@]12NN=N[C@@H]1[C@H]1CO[C@H](c3ccccc3)N1C2=O`, the TGI in the test on HCT-116 colon amounted to 32.5 µM; in the test with MDA-MB-435, 35.6 µM; in the test with RPMI-8226 leukemia, 8.71 µM; with U251 CNS, 18.4 µM; in the test on HCC-2998 colon, 25.7 µM; with MALME-3M melanoma, 26.8 µM. For the same molecule, the values for the TGI in the test on CCRF-CEM leukemia, in the test with KM12 colon and in the test on HL-60(TB) leukemia were over 100 µM, 35 µM and over 100 µM, respectively.

As to `COC(=O)C1Cc2c([nH]c3ccccc23)-c2[nH]c3ccccc3c2CC(NC(C)=O)C(=O)N2CCCC2C(=O)N1` (stereo unspecified), the TGI in the test with HCT-116 colon, in the test with MDA-MB-435, in the test on RPMI-8226 leukemia, with U251 CNS, in the test on HCC-2998 colon and in the test with CCRF-CEM leukemia was over 100 µM throughout. In the test on NCI-H226 lung, this molecule displayed a TGI of 18.3 µM.

For `O=C1c2c(F)c(F)c(F)c(F)c2SC2=Nc3cccc4cccc(c34)N12`, the TGI in the test on HCT-116 colon was 11.9 µM; with MDA-MB-435, 12.8 µM; in the test on RPMI-8226 leukemia, 8.02 µM; in the test with U251 CNS, 10.7 µM; in the test with HCC-2998 colon, 28.5 µM; in the test on MALME-3M melanoma it was 9.24 µM. Moreover, the TGI is over 25.1 µM in the test on CCRF-CEM leukemia, 10.2 µM with KM12 colon, 28.7 µM with NCI-H226 lung and over 20 µM in the test with HL-60(TB) leukemia.

On to `O=C1[C@H](O)[C@@H]2CCC[C@@]23CCCN13`, for which the TGI with HCT-116 colon, in the test with MDA-MB-435, with RPMI-8226 leukemia, with U251 CNS, with HCC-2998 colon and in the test with CCRF-CEM leukemia was over 100 µM each time. For the same molecule, the TGI in the test on KM12 colon, in the test on NCI-H226 lung and with HL-60(TB) leukemia was over 100 µM in each case.

For the molecule `COC(=O)[C@@H](NC(=O)c1ccc(CNC(=O)/C(C)=C/c2ccccc2)cc1)C(C)C`, the TGI is over 100 µM in the test on HCT-116 colon; over 100 µM with MDA-MB-435; over 100 µM with RPMI-8226 leukemia; over 100 µM in the test on U251 CNS; 79.9 µM in the test on HCC-2998 colon; over 100 µM with MALME-3M melanoma. Moreover, the TGI in the test on CCRF-CEM leukemia, in the test on KM12 colon and in the test on NCI-H226 lung was over 100 µM in each case.

As for `COC(=O)CN(CC1O[C@@H]2OC(C)(C)O[C@@H]2C1NC(C)=O)C(=O)OCc1ccccc1` (stereo partly specified), the TGI in the test with HCT-116 colon, with MDA-MB-435, in the test with RPMI-8226 leukemia, in the test on U251 CNS, in the test with HCC-2998 colon and in the test on KM12 colon was over 100 µM throughout. For the same molecule, the TGI in the test on NCI-H226 lung and with HL-60(TB) leukemia was over 100 µM each time.

For `CCSc1[nH]c(NC(=NC(C)C)NC(=O)c2ccccc2)c(C(N)=O)c1C(N)=O`, the TGI in the test on MDA-MB-435, with RPMI-8226 leukemia, in the test on HCC-2998 colon, in the test with MALME-3M melanoma, in the test with CCRF-CEM leukemia and in the test on KM12 colon was over 10 µM throughout. Moreover, in the test with HL-60(TB) leukemia, the TGI is over 10 µM.

Take `O=C(NCCC1CN(S(=O)(=O)C(F)(F)F)c2ccccc21)OCc1ccccc1` (stereo unspecified): the TGI in the test on HCT-116 colon, with MDA-MB-435, in the test on RPMI-8226 leukemia, with U251 CNS, with HCC-2998 colon and in the test with MALME-3M melanoma was over 100 µM in each case. The TGI in the test with CCRF-CEM leukemia and in the test on KM12 colon was over 100 µM throughout.

For the molecule `N#Cc1c(O)c(C=O)c(=O)n2c1[nH]c1ccccc12`, the TGI in the test on HCT-116 colon, in the test on MDA-MB-435, in the test on RPMI-8226 leukemia, in the test on U251 CNS, in the test on HCC-2998 colon and with MALME-3M melanoma was over 100 µM each time. In addition, the TGI in the test on CCRF-CEM leukemia, in the test on KM12 colon and in the test on NCI-H226 lung was over 100 µM each time.

As for `CN1C(=O)[C@@H]2[C@@H]3c4ccccc4N[C@@H]3c3[nH]c4ccccc4c3[C@@H]2C1=O`, the TGI in the test with HCT-116 colon stood at 74.9 µM; in the test with MDA-MB-435, 64.7 µM; with RPMI-8226 leukemia it was 47 µM; with U251 CNS it was 66.3 µM; in the test on HCC-2998 colon, 40.3 µM; in the test on CCRF-CEM leukemia, 46.5 µM. The molecule further showed a TGI in the test with NCI-H226 lung of over 100 µM.

`Cc1ccc(Cc2n[nH]c(=O)n2N2C(=O)c3ccccc3C2=O)cc1`: the TGI in the test with HCT-116 colon, in the test with MDA-MB-435, in the test with U251 CNS, with HCC-2998 colon, in the test with MALME-3M melanoma and with CCRF-CEM leukemia was over 100 µM in each case. Also, the TGI with KM12 colon and in the test with NCI-H226 lung was over 100 µM each time.

For `Cc1ccc(S(=O)(=O)NCCCSCCO)cc1`, the TGI with HCT-116 colon, in the test with MDA-MB-435, in the test with U251 CNS, in the test on HCC-2998 colon, in the test on CCRF-CEM leukemia and in the test with KM12 colon was over 100 µM each time. In addition, the TGI with NCI-H226 lung and in the test on HL-60(TB) leukemia was over 100 µM in each case.

For the molecule `CNC(=O)c1cc(Oc2cccc3nc(NC(=O)Nc4ccc(F)cc4F)ccc23)ccn1`, the GI50 was 1.5 µM in the test with MDA-MB-435, 2.2 µM in the test with RPMI-8226 leukemia, over 50 µM with HCC-2998 colon and over 50 µM with CCRF-CEM leukemia. The TGI with MDA-MB-435, in the test with RPMI-8226 leukemia, with HCC-2998 colon and with CCRF-CEM leukemia was over 50 µM each time.

Regarding `CC(C)(/C=N/O)/[N+]([O-])=C/c1ccccc1`, the TGI in the test with HCT-116 colon, with MDA-MB-435, with RPMI-8226 leukemia, in the test with U251 CNS, with HCC-2998 colon and in the test on MALME-3M melanoma was over 100 µM in each case. Further, the TGI in the test with KM12 colon and with NCI-H226 lung was over 100 µM each time.
